Series [1] addresses T1, Bovine pancreatic trypsin (Bos taurus, UniProt P00760).
T1 construct: purchased Sigma Aldrich; host or cells: bovine pancreas
T1 sequence (P00760 24-246): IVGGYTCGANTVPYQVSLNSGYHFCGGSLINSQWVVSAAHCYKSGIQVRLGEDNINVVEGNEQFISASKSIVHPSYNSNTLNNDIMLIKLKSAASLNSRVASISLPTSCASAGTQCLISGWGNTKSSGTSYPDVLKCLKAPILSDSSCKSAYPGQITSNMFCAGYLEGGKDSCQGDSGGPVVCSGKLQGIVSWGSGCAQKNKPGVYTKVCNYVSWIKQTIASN
Briefly: biochemical. Format: biochemical.

Another series is described as follows: physchem. Conditions: pH 9, aqueous with cosolvent or surfactant or cyclodextrin, kinetic from dmso stock.
Another series addresses WNV NS2B-NS3pro (West Nile virus, UniProt P06935). Briefly: Steady-state kinetics of inhibitors of WNV NS2B-NS3pro. Format: biochemical.
A further series has as its target DEN2V NS2B-NS3pro (Dengue virus type 2, UniProt Q91H74). Nature of the series: Steady-state kinetics of inhibitors of DEN2V NS2B-NS3pro (Boc-GRR-AMC substrate, Dynafit). The series is classed as biochemical, Dengue 2 virus. Conditions: for Mechanism: HTS-identified hits.
A further series deals with DENV; WNV protease. Format: biochemical, Dengue virus; West Nile virus.
[2] abbreviates: Ki1 (from biochemical protease inihibition experiments) West Nile virus NS2B-NS.
[3] abbreviates: DEN2V NS2B-NS3 Ki1, second series analogs.
Where [4] appears, read: DEN2V NS2B-NS3 Ki2, second series analogs.
Setting [5] is: Ki1 (from biochemical protease inihibition experiments) Dengue 2 virus NS2B-NS3.
[6] abbreviates: Table 2, WNV NS2B-NS3pro, read-out: Ki1.
The mark [7] stands for this setting: Table 2, WNV NS2B-NS3pro, read-out: Ki2.
[8] abbreviates: Table 1, DEN2V NS2B-NS3pro, read-out: Ki1.
Setting [9] is: Table 1, DEN2V NS2B-NS3pro, read-out: Ki2.

“Also recorded” adds a separate entry of the source. Like-named read-outs stand apart in the source and are kept apart here.

WNV NS2B-NS3pro, sequence (P06935 1502-1679 limits assumed): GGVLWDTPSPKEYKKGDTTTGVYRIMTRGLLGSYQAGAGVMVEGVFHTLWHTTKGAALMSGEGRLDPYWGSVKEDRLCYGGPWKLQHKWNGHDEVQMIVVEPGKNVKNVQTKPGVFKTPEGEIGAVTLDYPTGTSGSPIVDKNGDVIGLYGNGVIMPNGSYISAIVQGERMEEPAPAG
WNV NS2B-NS3pro, sequence (P06935 1424-1463 partner limits assumed): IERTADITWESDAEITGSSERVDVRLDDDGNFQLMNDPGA
DEN2V NS2B-NS3pro, sequence (Q91H74 entry or part of it, added parts left off): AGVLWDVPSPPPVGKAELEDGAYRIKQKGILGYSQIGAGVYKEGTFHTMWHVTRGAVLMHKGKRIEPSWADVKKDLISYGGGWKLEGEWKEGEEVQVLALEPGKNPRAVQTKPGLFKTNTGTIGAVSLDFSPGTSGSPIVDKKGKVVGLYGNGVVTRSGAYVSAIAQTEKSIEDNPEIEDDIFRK
DEN2V NS2B-NS3pro, sequence (Q91H74 entry or part of it partner, added parts left off): as the sequence (Q91H74 entry or part of it, added parts left off) above

With `N=C(N)c1ccccc1` [Benzamidine, reference compound], the “Mechanism (trypsin inhibition)” value in series [1] is on record as “competitive trypsin inhibitors”.
In general, solubility refers to how much of the substance goes into solution per volume. Read a low solubility as little dissolved substance. In “physchem”, `O=[N+]([O-])c1ccc(OP(=O)([O-])Oc2ccc([N+](=O)[O-])cc2)cc1.[Na+]` [Compound 6A24] came in with a solubility of under 10 µM.
With `Nc1cccc2c1C(=O)c1ccccc1C2=O` [Compound 6A25], in “physchem”, the solubility was under 10 µM.
On the same count and under the same terms, next, `Nc1ccc2c(c1)C(=O)c1ccccc1C2=O` [Compound 6A27]: under 10 µM.
On the same count and under the same terms, the value for `Cc1ccc2c(c1)C(=O)c1ccccc1C2=O` [Compound 6A28] was under 10 µM; that for `O=c1[nH]c2cc([N+](=O)[O-])c([N+](=O)[O-])cc2[nH]c1=O` [Compound 6A29] was under 10 µM.
The compound `O=C1c2cccc(O)c2C(=O)c2cccc(O)c21` [Compound 6A30] displayed a solubility in “physchem” of under 10 µM.
In turn, `Nc1ccc2c(c1[N+](=O)[O-])C(=O)c1ccccc1C2=O` [Compound 6A35] yielded a solubility in the series “physchem” of under 10 µM.
On the same count and under the same terms, the value for `O=[N+]([O-])c1cc([N+](=O)[O-])c2ccccc2c1[O-].[Na+]` [Compound 6A40] was under 10 µM.
On the same count and under the same terms, the value for `Cc1cccc2c1C(=O)c1cccc([N+](=O)[O-])c1C2=O` [Compound 6A41] was under 10 µM.
Same read-out and setting: the value for `COc1ccc(N)c2c1C(=O)c1ccccc1C2=O` [Compound 6A46] was over 10 µM.
The compound `CN/N=C1/c2ccccc2C(=O)c2c(O)ccc(O)c21` [Compound 6A48] yielded a solubility in “physchem” of over 10 µM.
The same measure, in the same setting: the value for `O=Cc1ccc2c(c1)C(=O)c1ccccc1C2=O` [Compound 6A50] was over 10 µM; that for `Nc1ccc(O)c2ccccc12` [Compound 6A51] was over 10 µM.
Same read-out and setting: the value for `Nc1c(Br)cc(O)c2c1C(=O)c1ccccc1C2=O` [Compound 6A53] was under 10 µM.
Take `Oc1ccc2cc3ccc(O)cc3c(O)c2c1` [Compound 6A60]: the Ki on WNV NS2B-NS3pro (setting [2]) is 11 µM; on DEN2V NS2B-NS3pro (setting [3]), 7 ± 5 µM; on DEN2V NS2B-NS3pro (setting [4]), 3 ± 1 µM; at DEN2V NS2B-NS3pro (setting [5]), 7 µM. Further, the solubility in the series “physchem” was over 10 µM. Besides, the “Trypsin Mechanism” value in series [1] is “did not inhibit trypsin cleavage activity; also recorded: No inhibition”. Further, the “DEN2V NS2B-NS3 Ki1” value on DEN2V NS2B-NS3pro (second series analogs) is listed as “lowest Ki1 of all anthracene-based analogs”. Besides, the “DEN2V NS2B-NS3 Mechanism” value at DEN2V NS2B-NS3pro (second series analogs) was “Mixed”.
Regarding `O=C1c2ccc(O)c(O)c2C(=O)c2c(O)ccc(O)c21` [Compound 6A61], the Ki stood at 31 µM at WNV NS2B-NS3pro (setting [2]), 72 ± 15 µM on DEN2V NS2B-NS3pro (setting [3]), 10 ± 2 µM on DEN2V NS2B-NS3pro (setting [4]) and 72 µM on DEN2V NS2B-NS3pro (setting [5]). The compound also registered a solubility in “physchem” of over 10 µM. In series [1], the “Trypsin Mechanism” value is listed as “did not inhibit trypsin; also recorded: No inhibition”. Also, at DEN2V NS2B-NS3pro (second series analogs), the “DEN2V NS2B-NS3 Mechanism” value was “Mixed”.
Turning to `O=c1ccc2[n+]([O-])c3ccc(O)cc3oc-2c1` [Compound 9A3], the Ki on WNV NS2B-NS3pro (setting [2]) came to 72 µM; on DEN2V NS2B-NS3pro (setting [5]), 82 µM.
Taken in the same sequence, the figures for `CN(C)c1ccc2nc3ccc(=O)cc-3sc2c1` [Compound 9A4] were 431 µM and 359 µM.
Consider `CCN(CC)c1ccc2nc3c4ccccc4c(=O)cc-3oc2c1` [Compound 9A6], for which the Ki at WNV NS2B-NS3pro (setting [2]) came to 47 µM; on DEN2V NS2B-NS3pro (setting [5]) it was 53 µM.
With `O=[N+]([O-])c1ccc(/C=N/c2ccc(O)c3ccccc23)c([N+](=O)[O-])c1` [Compound 260], the Ki at WNV NS2B-NS3pro (WNpro Ki1) is 14 µM; at WNV NS2B-NS3pro (WNpro Ki2), 5 µM; on DEN2V NS2B-NS3pro (Denpro Ki1) it was 52 µM; at DEN2V NS2B-NS3pro (Denpro Ki2) it was 5 µM. The “Protease inhibited in Knock-down” value in the series with DENV; WNV protease was “DENV; WNV”.
Take `O=C(Nc1ccc(O)c2ccccc12)c1ccc([N+](=O)[O-])cc1[N+](=O)[O-]` [Compound 273]: the Ki was under 169 µM on WNV NS2B-NS3pro (WNpro Ki1), under 186 µM on WNV NS2B-NS3pro (WNpro Ki2) and under 223 µM at DEN2V NS2B-NS3pro (Denpro Ki1). Moreover, the “Protease inhibited in Knock-down” value in the series with DENV; WNV protease is listed as “DENV; WNV”.
On to `Oc1cc2ccc(/N=N/c3ccc4c(c3)OCO4)cc2cc1O` [Compound 290], for which the values for the Ki on WNV NS2B-NS3pro (WNpro Ki2) and at DEN2V NS2B-NS3pro (Denpro Ki2) were under 6 µM and under 8.5 µM, respectively. Besides, the “Protease inhibited in Knock-down” value in the series with DENV; WNV protease is recorded as “DENV; WNV”.
On to `Oc1ccc2cc(/N=N/c3ccc4c(c3)OCO4)c(O)cc2c1` [Compound 292], for which the “Protease inhibited in Knock-down” value in the series with DENV; WNV protease was “WNV”.
As for `O=[N+]([O-])c1cc(/N=N/c2ccc3cc(O)c(O)cc3c2)ccc1O` [Compound 293], the figures for the Ki at WNV NS2B-NS3pro (WNpro Ki2), on DEN2V NS2B-NS3pro (Denpro Ki1) and on DEN2V NS2B-NS3pro (Denpro Ki2) were 20 µM, 432 µM and 29 µM, respectively. Also, in the series with DENV; WNV protease, the “Protease inhibited in Knock-down” value is listed as “DENV”.
On to `Oc1ccc2c(/N=N/c3ccc4c(c3)OCO4)ccc(O)c2c1` [Compound 296], for which the Ki on WNV NS2B-NS3pro (WNpro Ki2) was 116 µM; at DEN2V NS2B-NS3pro (Denpro Ki1) it was 215 µM; at DEN2V NS2B-NS3pro (Denpro Ki2), 62 µM. Also, the “Protease inhibited in Knock-down” value in the series with DENV; WNV protease was “DENV; WNV”.
For `O=[N+]([O-])c1cc(/N=N/c2ccc(O)c3cc(O)ccc23)ccc1O` [Compound 297], the Ki came to 61 µM at WNV NS2B-NS3pro (WNpro Ki2) and 85 µM on DEN2V NS2B-NS3pro (Denpro Ki2). Besides, the “Protease inhibited in Knock-down” value with DENV; WNV protease was “DENV; WNV”.
Consider `O=[N+]([O-])c1ccc(/N=N/c2ccc(O)c3cc(O)ccc23)c([N+](=O)[O-])c1` [Compound 298], for which the Ki was determined as 4 µM at WNV NS2B-NS3pro (WNpro Ki1), 2 µM at WNV NS2B-NS3pro (WNpro Ki2), 40 µM on DEN2V NS2B-NS3pro (Denpro Ki1) and 4 µM on DEN2V NS2B-NS3pro (Denpro Ki2). The “Protease inhibited in Knock-down” value in the series with DENV; WNV protease was “DENV; WNV”.
In the case of `O=[N+]([O-])c1ccc(/N=N/c2ccc3cc(O)c(O)cc3c2)c(O)c1` [Compound 300], the Ki was 3 µM on WNV NS2B-NS3pro (WNpro Ki1), 2 µM at WNV NS2B-NS3pro (WNpro Ki2), 81 µM on DEN2V NS2B-NS3pro (Denpro Ki1) and 5 µM on DEN2V NS2B-NS3pro (Denpro Ki2). The “Protease inhibited in Knock-down” value in the series on DENV; WNV protease is given as “DENV; WNV”.
As to `Cc1ccc(O)c(/N=N/c2c(O)cc(O)c3ccccc23)c1` [Compound 301], in the series with DENV; WNV protease, the “Protease inhibited in Knock-down” value is reported as “DENV; WNV”.
The same measure, in the same setting: the value for `O=[N+]([O-])c1ccc(/N=N/c2c(O)cc(O)c3ccccc23)c(O)c1` [Compound 302] was “DENV; WNV”.
Regarding `CC[C@H](C)[C@H]1O[C@]2(CC[C@@H]1C)C[C@@H]1C[C@@H](C/C=C(\C)[C@@H](O[C@H]3C[C@H](OC)[C@@H](O[C@H]4C[C@H](OC)[C@@H](O)[C@H](C)O4)[C@H](C)O3)[C@@H](C)/C=C/C=C3\CO[C@@H]4[C@H](O)C(C)=C[C@@H](C(=O)O1)[C@]34O)O2` [MS21, Ivermectin, reference compound], the Mechanism result is reported as “Mixed” at WNV NS2B-NS3pro (Table 2, WNV NS2B-NS3pro) and “Mixed” at DEN2V NS2B-NS3pro (Table 1, DEN2V NS2B-NS3pro). In addition, the Ki on WNV NS2B-NS3pro (setting [6]) is 55 ± 18 µM; at WNV NS2B-NS3pro (setting [7]) it was 16 ± 4 µM; on DEN2V NS2B-NS3pro (setting [8]) it was 79 ± 21 µM; on DEN2V NS2B-NS3pro (setting [9]), 35 ± 4 µM.
`Cc1cc(C(C)(C)CC(C)(C)C)ccc1OCCOCC[N+](C)(C)Cc1ccccc1.[Cl-]` [MS22, Methylbenzethonium chloride, reference compound]: the Mechanism entry was “Mixed” on WNV NS2B-NS3pro (Table 2, WNV NS2B-NS3pro) and “Mixed” at DEN2V NS2B-NS3pro (Table 1, DEN2V NS2B-NS3pro). The Ki on WNV NS2B-NS3pro (setting [6]) came out at 141 ± 20 µM; on WNV NS2B-NS3pro (setting [7]), 307 ± 80 µM; on DEN2V NS2B-NS3pro (setting [8]), 322 ± 81 µM; at DEN2V NS2B-NS3pro (setting [9]), 160 ± 39 µM.
Regarding `CO[C@H]1C[C@H](O[C@@H]2/C(C)=C/C[C@@H]3C[C@@H](C[C@]4(CC[C@H](C)[C@@H](C5CCCCC5)O4)O3)OC(=O)[C@@H]3C=C(C)/C(=N/O)[C@H]4OC/C(=C\C=C\[C@@H]2C)[C@]43O)O[C@@H](C)[C@@H]1O` [MS24, Selamectin, reference compound], the Ki at WNV NS2B-NS3pro (Ki1, Table 2, WNV NS2B-NS3pro) is 15 ± 9 µM; at WNV NS2B-NS3pro (Ki2, Table 2, WNV NS2B-NS3pro) it was 28 ± 6 µM; on DEN2V NS2B-NS3pro (Ki1, Table 1, DEN2V NS2B-NS3pro), 63 ± 18 µM; on DEN2V NS2B-NS3pro (Ki2, Table 1, DEN2V NS2B-NS3pro) it was 45 ± 8 µM. For the same compound, the Mechanism entry on WNV NS2B-NS3pro (Table 2, WNV NS2B-NS3pro) is “Mixed”; on DEN2V NS2B-NS3pro (Table 1, DEN2V NS2B-NS3pro) it was “Mixed”.

Source of the values: patent US8778876B2, “Small-molecule inhibitors of Dengue and West Nile virus proteases” (The Board of Regents of the University of Texas System, priority 2011, dated 2014).
